Measurements taken from ChEMBL document CHEMBL4312025, “Synthesis, antiproliferative activity and DNA/RNA-binding properties of mono- and bis-(1,2,3-triazolyl)-appended benzimidazo[1,2-a]quinoline derivatives” (Eur J Med Chem, 2020).
Activity calls are given as the source filed them. The calls are words filed in the database; no cut-off is given here.

Tests used:
Calf thymus DNA [1] = assay: Binding affinity to calf thymus dsDNA assessed as stabilization of mixed DNA base pairs in sodium cacodylate buffer at pH 7 at compound:polynucleotide concentration ratio of 0.2 by thermal denaturation assay; type: nucleic-acid assay; conditions: Bos taurus
[2] = system: Poly(dA-dU)oligonucleotide; assay: Binding affinity to polyA-polyU dsRNA (unknown origin) assessed as decrease in emission intensity of the compound in sodium cacodylate buffer at pH 7 at 1X10'-6 mol/dm3 by fluorescence spectroscopy; type: nucleic-acid assay
[3] = Growth inhibition of human HaCaT cells incubated for 72 hrs by MTT assay; type: cell-based
Calf thymus DNA [4] = assay: Binding affinity to calf thymus dsDNA assessed as intercalating activity by measuring decrease in CD spectra of polynucleotides in sodium cacodylate buffer at pH 7 at compound:polynucleotide concentration ratio of 0.1 to 0.3 by CD spectroscopy; type: nucleic-acid assay; conditions: Bos taurus
Calf thymus DNA [5] = assay: Binding affinity to calf thymus dsDNA assessed as change in melting temperature in sodium cacodylate buffer at pH 7 at compound:polynucleotide concentration ratio of 0.2 by thermal denaturation assay; type: nucleic-acid assay; conditions: Bos taurus
Calf thymus DNA [6] = assay: Binding affinity to calf thymus ds-DNA assessed as decrease in emission intensity of the compound in sodium cacodylate buffer at pH 7 at 1X10'-6 mol/dm3 by fluorescence spectroscopy; type: nucleic-acid assay; conditions: Bos taurus
NCI-H460 = assay: Growth inhibition of human H460 cells incubated for 72 hrs by MTT assay; type: functional; conditions: NCI-H460, 72 h
[7] = Drug uptake in cytoplasm of human H460 cells assessed as perinuclear reticular staining at 1 uM incubated for 15 mins by fluorescence microscopy; type: ADME, cell-based; conditions: nci-h460, 0.25 h
Calf thymus DNA [8] = assay: Binding affinity to calf thymus dsDNA assessed as binding constant in sodium cacodylate buffer at pH 7 by fluorescence spectroscopy; type: nucleic-acid assay; conditions: Bos taurus
HCT-116 [9] = assay: Cell cycle arrest in human HCT116 cells at 0.5 to 1 uM incubated for 24 and 48 hrs by propidium iodide staining based flow cytometry; type: functional
HCT-116 [10] = assay: Cytotoxicity against human HCT116 cells assessed as induction of massive cell death at 5 uM incubated for 24 to 48 hrs; type: functional, cell-based
[11] = system: Poly(dA-dU)oligonucleotide; assay: Binding affinity to polyA-polyU dsRNA (unknown origin) assessed as biphasic thermal denaturation transitions in sodium cacodylate buffer at pH 7 at compound:polynucleotide concentration ratio of 0.1 by thermal denaturation assay; type: nucleic-acid assay
[12] = system: Poly(dA-dU)oligonucleotide; assay: Binding affinity to polyA-polyU dsRNA (unknown origin) assessed as ratio for fluorescence intensity of compound to fluorescence intensity for compound-polynucleotide complex in sodium cacodylate buffer at pH 7 by fluorescence spectroscopy based Scatchard method; type: nucleic-acid assay
[13] = Solubility of the compound in 0.05 M sodium cacodylate buffer with <0.01% DMSO upto 1X10'-5 mol/dm3 by UV/Visible spectra analysis; type: physicochemical
MCF7 = assay: Growth inhibition of human MCF7 cells incubated for 72 hrs by MTT assay; type: functional; conditions: MCF7, 72 h
[14] = system: Poly(dA-dU)oligonucleotide; assay: Binding affinity to polyA-polyU dsRNA (unknown origin) assessed as biphasic thermal denaturation transitions in sodium cacodylate buffer at pH 7 at compound:polynucleotide concentration ratio of 0.2 by thermal denaturation assay; type: nucleic-acid assay
[15] = system: Poly(dA-dU)oligonucleotide; assay: Binding affinity to polyA-polyU dsRNA (unknown origin) assessed as binding constant in sodium cacodylate buffer at pH 7 by fluorescence spectroscopy; type: nucleic-acid assay
[16] = Selectivity index, ratio of GI50 for human HaCaT cells to GI50 for human HCT116 cells incubated for 72 hrs by MTT assay; type: toxicity; conditions: HaCaT cells and HCT116 cells, read-out: RatioGI50
[17] = system: Poly(dA-dU)oligonucleotide; assay: Binding affinity to polyA-polyU dsRNA (unknown origin) assessed as stabilization of polynucleotide in sodium cacodylate buffer at pH 7 at compound:polynucleotide concentration ratio of 0.1 to 0.2 by thermal denaturation assay; type: nucleic-acid assay
HCT-116 [18] = assay: Growth inhibition of human HCT116 cells incubated for 72 hrs by MTT assay; type: functional; conditions: HCT-116, 72 h
Calf thymus DNA [19] = assay: Binding affinity to calf thymus dsDNA assessed as ratio for fluorescence intensity of compound to fluorescence intensity for compound-polynucleotide complex in sodium cacodylate buffer at pH 7 by fluorescence spectroscopy based Scatchard method; type: nucleic-acid assay; conditions: Bos taurus
Calf thymus DNA [20] = assay: Binding affinity to calf thymus dsDNA assessed as intercalating activity by measuring weak negative ICD band between 300 and 330 nm in sodium cacodylate buffer at pH 7 at compound:polynucleotide concentration ratio of 0.1 to 0.3 by CD spectroscopy; type: nucleic-acid assay; conditions: Bos taurus
Calf thymus DNA [21] = assay: Binding affinity to calf thymus dsDNA assessed as ratio for bound compound to polynucleotide in sodium cacodylate buffer at pH 7 by fluorescence spectroscopy based Scatchard analysis; type: nucleic-acid assay; conditions: Bos taurus
[22] = system: Poly(dA-dU)oligonucleotide; assay: Binding affinity to polyA-polyU dsRNA (unknown origin) assessed as ratio for bound compound to polynucleotide in sodium cacodylate buffer at pH 7 by fluorescence spectroscopy based Scatchard method; type: nucleic-acid assay
[23] = system: Poly(dA-dU)oligonucleotide; assay: Binding affinity to polyA-polyU dsRNA (unknown origin) assessed as intercalating activity by measuring decrease in CD spectra of polynucleotides in sodium cacodylate buffer at pH 7 at compound:polynucleotide concentration ratio of 0.1 to 0.4 by CD spectroscopy; type: nucleic-acid assay
[24] = Drug uptake in nucleus of human H460 cells at 1 uM incubated for 15 mins by fluorescence microscopy; type: ADME, cell-based; conditions: nci-h460, 0.25 h

## N#Cc1c(-n2cc(CCCCl)nn2)c2ccc(F)cc2n2c1nc1ccccc12
Calf thymus DNA [1]
  Activity: inactive
[2]
  Activity: Active
[3]
  GI50 at 72 h: 3500 nM
Calf thymus DNA [4]
  Activity: Active
Calf thymus DNA [5]
  ΔTm: 0.5 °C
Calf thymus DNA [6]
  Activity: Active
NCI-H460
  GI50: 700 nM
[7]
  Drug uptake: Active
Calf thymus DNA [8]
  log Ks: 5.2
HCT-116 [9]
  Activity: Active
HCT-116 [10]
  Activity: Active
[11]
  ΔTm: 0.7 to 16.6 °C
[12]
  Ratio: 0.4
[13]
  solubility: Soluble
MCF7
  GI50: 2000 nM
[14]
  ΔTm: 0.7 to 20.7 °C
[15]
  log Ks: 5.9
[16]
  selectivity ratio at 72 h: > 7
[17]
  Activity: Active
HCT-116 [18]
  GI50: 500 nM
Calf thymus DNA [19]
  Ratio: 0.5
Calf thymus DNA [20]
  Activity: Active
Calf thymus DNA [21]
  Ratio: 0.1
[22]
  Ratio: 0.1
[23]
  Activity: Active
[24]
  Drug uptake: Not Active
